Here are results for 36 compounds from ChEMBL document CHEMBL3039007, “Structure-based identification of OATP1B1/3 inhibitors” (Mol Pharmacol, 2013).

For series [1], the target named is T1, Solute carrier organic anion transporter family member 1B1 (Homo sapiens, UniProt Q9Y6L6).
T1 sequence (Q9Y6L6 whole entry): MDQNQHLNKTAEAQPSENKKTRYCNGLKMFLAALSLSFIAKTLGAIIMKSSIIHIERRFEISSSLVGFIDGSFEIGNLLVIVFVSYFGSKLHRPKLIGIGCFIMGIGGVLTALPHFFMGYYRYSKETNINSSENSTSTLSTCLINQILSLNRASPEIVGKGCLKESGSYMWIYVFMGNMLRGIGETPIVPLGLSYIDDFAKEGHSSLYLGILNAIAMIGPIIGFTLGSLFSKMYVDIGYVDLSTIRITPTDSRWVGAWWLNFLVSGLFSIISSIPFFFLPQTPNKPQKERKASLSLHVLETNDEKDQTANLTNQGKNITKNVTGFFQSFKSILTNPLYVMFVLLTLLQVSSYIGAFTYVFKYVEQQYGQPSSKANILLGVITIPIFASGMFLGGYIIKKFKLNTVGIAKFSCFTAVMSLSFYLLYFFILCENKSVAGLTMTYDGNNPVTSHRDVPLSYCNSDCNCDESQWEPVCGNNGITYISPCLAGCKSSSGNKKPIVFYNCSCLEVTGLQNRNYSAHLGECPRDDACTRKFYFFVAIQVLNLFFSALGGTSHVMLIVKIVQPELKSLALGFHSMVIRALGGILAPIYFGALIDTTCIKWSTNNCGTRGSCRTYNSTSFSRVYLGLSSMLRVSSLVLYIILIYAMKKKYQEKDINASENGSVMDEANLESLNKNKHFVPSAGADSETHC
The following applies: chinese hamster, cho, 10 µM.

Series [2] has as its target T2, Solute carrier organic anion transporter family member 1B3 (Homo sapiens, UniProt Q9NPD5).
T2 sequence (Q9NPD5 whole entry): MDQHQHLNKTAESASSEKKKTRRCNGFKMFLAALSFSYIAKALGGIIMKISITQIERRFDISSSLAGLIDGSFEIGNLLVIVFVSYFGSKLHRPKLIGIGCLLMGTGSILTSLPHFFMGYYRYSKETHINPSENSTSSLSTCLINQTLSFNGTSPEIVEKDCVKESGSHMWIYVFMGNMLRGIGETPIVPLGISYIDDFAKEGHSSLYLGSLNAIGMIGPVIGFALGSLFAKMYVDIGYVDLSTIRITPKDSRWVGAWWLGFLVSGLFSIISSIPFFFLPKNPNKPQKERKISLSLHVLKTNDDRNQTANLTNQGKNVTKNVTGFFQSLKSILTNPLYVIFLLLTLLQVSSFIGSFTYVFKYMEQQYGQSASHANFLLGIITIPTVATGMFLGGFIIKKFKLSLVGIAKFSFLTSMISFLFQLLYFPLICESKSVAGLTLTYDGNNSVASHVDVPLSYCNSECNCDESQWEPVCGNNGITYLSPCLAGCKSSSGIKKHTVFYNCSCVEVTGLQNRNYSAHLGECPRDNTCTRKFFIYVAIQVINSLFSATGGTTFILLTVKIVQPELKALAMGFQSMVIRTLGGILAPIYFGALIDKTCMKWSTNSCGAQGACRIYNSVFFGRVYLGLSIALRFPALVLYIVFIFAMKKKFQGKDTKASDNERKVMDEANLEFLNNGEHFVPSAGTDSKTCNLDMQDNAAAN
The settings on record: chinese hamster, cho, 10 µM.

On to `Cc1cccc(CN2CCN(C(c3ccccc3)c3ccc(Cl)cc3)CC2)c1.Cl.O` (configuration not stated), for which the values for the residual activity in series [1] and in series [2] were 80.22% and 79.23%, respectively.
The corresponding values for `Cl.OCCN1CCN(CCCN2c3ccccc3Sc3ccc(C(F)(F)F)cc32)CC1` are 153.1% and 93.03%.
As to `CNC(C)(C)Cc1ccccc1.O=S(=O)(O)O`, the residual activity (commonly the signal under treatment as a percentage of the control signal) in series [1] worked out at 107.5%; in series [2], 109.4%.
As for `CCN(CC)CCNC(=O)c1cc(Cl)c(N)cc1OC.Cl`, the residual activity is 84.82% in series [1] and 108.2% in series [2].
Consider `CN1CCc2c(c3ccccc3n2Cc2ccccc2)C1.CN1CCc2c(c3ccccc3n2Cc2ccccc2)C1.O=S(=O)(O)c1cccc2c(S(=O)(=O)O)cccc12`, for which the residual activity in series [1] worked out at 69.52%; in series [2], 77.15%.
The corresponding values for `COc1cc2c3cc1Oc1cc(ccc1O)C[C@@H]1c4c(cc(OC)c(O)c4Oc4ccc(cc4)C[C@@H]3N(C)CC2)CC[N+]1(C)C.[Cl-]` are 99.28% and 110.3%.
The corresponding values for `C[C@H]1CC[C@]2(NC1)O[C@H]1C[C@H]3[C@@H]4CC[C@H]5C[C@@H](O)CC[C@]5(C)[C@H]4CC[C@]3(C)[C@H]1[C@@H]2C.Cl` are 108.8% and 99.59%.
Turning to `CSCC[C@H](NC=O)C(=O)N[C@@H](CC(C)C)C(=O)N[C@@H](Cc1ccccc1)C(=O)O`, the results for the residual activity in series [1] and in series [2] were 76.72% and 120.4%, respectively.
On the same counts, the results for `COc1cc(OC)c2c(c1)O[C@H](c1ccc(OC)c(OC)c1)[C@@H](O)C2` are 123.7% and 103.7%.
The corresponding values for `c1ccc2c(c1)cc1ccc3cccc4ccc2c1c34` are 74.44% and 70.45%.
Consider `C=N[C@@H](C(=O)N[C@@H]1C(=O)N2[C@@H]1SC(C)(C)[C@@H]2C(=O)[O-])c1ccccc1.[Na+]`, for which the results for the residual activity in series [1] and in series [2] were 110.5% and 54.33%, respectively.
On to `CSCC[C@H](N)C(=O)N[C@@H](CC(C)C)C(=O)N[C@@H](Cc1ccccc1)C(=O)OC(C)=O`, for which the values for the residual activity in series [1] and in series [2] were 102.4% and 94.57%, respectively.
On the same counts, the results for `CCCCCCCCCCCC[C@@H](C(=O)O)[C@H](C)C(=O)O` are 76.63% and 61.85%.
Consider `CC(=O)O[C@H]1CC[C@@]2(C)[C@@H](CC[C@H]3[C@@H]4CC=C(C(C)=O)[C@@]4(C)C(=O)C[C@@H]32)C1`, for which the values for the residual activity in series [1] and in series [2] were 81.91% and 85.5%, respectively.
In the case of `C[C@]12CC[C@H](Cl)C[C@@H]1CC[C@@H]1[C@@H]2CC[C@]2(C)C(=O)CC[C@@H]12`, the residual activity in series [1] was 67.79%; in series [2], 70.61%.
As for `CC(=O)OCC1=C(C(=O)[O-])N2C(=O)[C@@H](NC(=O)CCC[C@@H](N)C(=O)O)[C@H]2SC1.[Na+]`, the residual activity in series [1] is listed as 89.78%; in series [2] it was 103.2%.
Consider `CC(=O)O[C@@H]1C[C@H]2C(C)(C)CCC(=O)[C@]2(C)[C@H]2CC[C@@]3(C)[C@H](c4ccoc4)OC(=O)[C@H]4O[C@]43[C@@]21C`, for which the residual activity in series [1] was found to be 67%; in series [2], 105.3%.
`COC(=O)[C@H]1OC(=O)[C@H]2O[C@]23[C@]2(C)[C@H](CC[C@]13C)[C@]1(C)CCC(=O)C(C)(C)[C@@H]1C[C@H]2OC(C)=O`: the residual activity in series [1] is on record as 32.74%; in series [2], 97.12%.
On the same counts, the results for `CC(=O)N[C@H]1[C@H]([C@@H](O)[C@H](O)CO)O[C@@](O)(C(=O)O)C[C@@H]1O` are 93.14% and 91.96%.
`CC(=O)[C@H]1CC[C@H]2[C@@H]3CC(=O)C4=CC(=O)CC[C@]4(C)[C@H]3CC[C@]12C`: the residual activity in series [1] is reported as 38.54%; in series [2] it was 75.51%.
With `C[C@@H]1O[C@@H](O[C@H]2[C@H](O[C@H]3CC[C@]4(C)C5CC=C6[C@@H]7CC(C)(C)CC[C@]7(C(=O)O)CC[C@]6(C)[C@]5(C)CC[C@@H]4[C@]3(C)CO)OC[C@H](O)[C@@H]2O)[C@H](O)[C@H](O)[C@H]1O` (some centres not stated), the figures for the residual activity in series [1] and in series [2] were 103.8% and 112.9%, respectively.
As to `CC1=CC(=O)[C@H]2C(C)(C)CCC[C@]2(C)[C@@]1(O)CCc1ccoc1`, the results for the residual activity in series [1] and in series [2] were 48.25% and 78.78%, respectively.
`COc1cc(OC)c2c(c1Cl)O[C@@]1(C(=O)CC(=O)C[C@H]1C)C2=O`: the residual activity in series [1] was 81.69%; in series [2] it was 85.63%.
The corresponding values for `CC(=O)O[C@@H]1C[C@H]2C(C)(C)C=CC(=O)[C@@]2(C)[C@H]2CC[C@]3(C)[C@@H](c4ccoc4)OC(=O)[C@H]4O[C@]43[C@]21C` are 18.57% and 46.89%.
Take `CC(=O)O[C@H]1CC[C@@]2(C)C(=CC[C@@H]3[C@@H]2CC[C@]2(C)C4C(C[C@@H]32)OC2(CCC(C)CO2)[C@H]4C)C1` (some centres not stated): the residual activity in series [1] is on record as 111%; in series [2] it was 105.4%.
Regarding `COC(=O)[C@@H]1OC(=O)[C@H]2O[C@]23[C@@]2(C)[C@H](CC[C@@]13C)[C@@]1(C)[C@@H](OC(C)=O)C[C@@H](OC(C)=O)C(C)(C)[C@@H]1C[C@@H]2O`, the values for the residual activity in series [1] and in series [2] were 66.58% and 72.87%, respectively.
On the same counts, the results for `CC(=O)O[C@H]1C[C@@H](OC(C)=O)C(C)(C)[C@@H]2CC(=O)[C@]3(C)[C@H](CC[C@@]4(C)[C@H](c5ccoc5)OC(=O)[C@H]5O[C@]543)[C@@]12C` are 55.58% and 72.19%.
The corresponding values for `CC(=O)O[C@H]1CC[C@@]2(C)[C@@H](CC[C@@H]3[C@@H]2CC[C@]2(C)[C@@H]4[C@H](C[C@@H]32)O[C@@]2(CCC(C)CO2)[C@H]4C)C1` (some centres not stated) are 112.3% and 107.6%.
With `CC(=O)O[C@H]1CC[C@]2(C)C3=C(CC[C@H]2C1(C)C)[C@@]1(C)CC[C@H]([C@H](C)CCC=C(C)C)[C@]1(C)CC3`, the residual activity in series [1] amounted to 29.18%; in series [2] it was 40.21%.
As for `COC(=O)[C@@H]1OC(=O)[C@H]2O[C@]23[C@]2(C)[C@H](O)C[C@H]4C(C)(C)[C@H](OC(C)=O)C[C@H](OC(C)=O)[C@]4(C)[C@H]2CC[C@@]13C`, the residual activity in series [1] is recorded as 70.09%; in series [2], 83.24%.
In the case of `CC(C)=CCC[C@]1(C)C=Cc2c(O)c3c(c(CC=C(C)C)c2C1)O[C@]12C(=C[C@@H]4C[C@H]1C(C)(C)O[C@@]2(C/C=C(/C)C(N)=O)C4=O)C3=O`, the values for the residual activity in series [1] and in series [2] were 57.81% and 70.77%, respectively.
For the compound `CC(=O)O[C@H]1C[C@@H](OC(C)=O)C(C)(C)[C@@H]2C[C@@H](OC(C)=O)[C@]3(C)[C@H](CC[C@]4(C)[C@H](c5ccoc5)C(=O)[C@H]5O[C@@]534)[C@@]12C`, the figures for the residual activity in series [1] and in series [2] were 26.02% and 57.61%, respectively.
The corresponding values for `OC[C@@H](O)C(O)[C@H](O)CO` are 121.4% and 118.8%.
The corresponding values for `NC(=O)CN1CCCC1=O` are 88.77% and 103.1%.
The corresponding values for `CC(=O)Nc1ccc(S(=O)(=O)Nc2ccc([N+](=O)[O-])cc2)cc1` are 61.58% and 88.89%.
As to `N=C(N)c1ccc(OCCCCCOc2ccc(C(=N)N)cc2)cc1.O=S(=O)(O)CCO`, the residual activity was found to be 99.74% in series [1] and 156% in series [2].
